Here are results for 1 compound from patent US5876694A, “Azavesamicols” (priority 1997, dated 1999).

The nature of this data set: Blocking experiment 1: co-injection of (dl)-vesamicol with radiotracer. It counts as in vivo, male Wistar rats. Conditions: rat, iv, 60 min. The protocol:
Two separate experiments each utilizing two groups of male Wistar rats (n=3) were performed.
Experiment 1. Animals in Group 1 (control) each received an intravenous injection of the radiotracer (4.7 uCi in 100 uL of 50% aq. EtOH). […] At 60 min post-injection, the animals were sacrificed and the tissues were harvested as outlined above.
Animals in Group 1 received a single i.v. injection of radiotracer.
Animals in Group 2 were administered with a mixture of the radiotracer an
All animals were sacrificed a
60 min postradiotracer injection.

Where two headings read alike, the source gives them in different places.

On to `O[C@@H]1CCN(Cc2cccc([125I])c2)C[C@H]1N1CCC(c2ccccc2)CC1` (single isomer, unassigned) [(-)-[^125 I]12h, (+)- and (-)-4-hydroxy-1-(3-[I^125]iodobenzyl)-3-(4-phenyl-piperidinyl)piperidine], for which the tissue uptake at 1 h by setting is: (blood, Group 1: radiotracer alone, read-out: Blocking study, blood) 0.09 %ID/g; (blood, Group 2: with (dl)vesamicol hydrochloride, read-out: Blocking study, blood) 0.09 %ID/g; (brain, Group 1: radiotracer alone, read-out: Blocking study, brain) 0.97 %ID/g; (brain, Group 2: with (dl)vesamicol hydrochloride, read-out: Blocking study, brain) 0.29 %ID/g; (gonads, Group 1: radiotracer alone, read-out: Blocking study, gonads) 0.21 %ID/g; (gonads, Group 2: with (dl)vesamicol hydrochloride, read-out: Blocking study, gonads) 0.22 %ID/g. Further, the tissue uptake at 1 h is, setting by setting: (heart, Group 1: radiotracer alone, read-out: Blocking study, heart) 0.5 %ID/g; (heart, Group 2: with (dl)vesamicol hydrochloride, read-out: Blocking study, heart) 0.16 %ID/g; (kidney, Group 1: radiotracer alone, read-out: Blocking study, kidney) 3.11 %ID/g; (kidney, Group 2: with (dl)vesamicol hydrochloride, read-out: Blocking study, kidney) 0.89 %ID/g; (liver, Group 1: radiotracer alone, read-out: Blocking study, liver) 2.45 %ID/g; (liver, Group 2: with (dl)vesamicol hydrochloride, read-out: Blocking study, liver) 2.31 %ID/g. Besides, the tissue uptake at 1 h reads like this: (lung, Group 1: radiotracer alone, read-out: Blocking study, lung) 1.96 %ID/g; (lung, Group 2: with (dl)vesamicol hydrochloride, read-out: Blocking study, lung) 0.76 %ID/g; (muscle, Group 1: radiotracer alone, read-out: Blocking study, muscle) 0.26 %ID/g; (muscle, Group 2: with (dl)vesamicol hydrochloride, read-out: Blocking study, muscle) 0.12 %ID/g; (spleen, Group 1: radiotracer alone, read-out: Blocking study, spleen) 1.1 %ID/g; (spleen, Group 2: with (dl)vesamicol hydrochloride, read-out: Blocking study, spleen) 0.58 %ID/g. In addition, the tissue uptake at 1 h came out at 5.58 %ID/g (thyroid, Group 1: radiotracer alone, read-out: Blocking study, thyroid) and 6.55 %ID/g (thyroid, Group 2: with (dl)vesamicol hydrochloride, read-out: Blocking study, thyroid).
